One may read the AC50 as the concentration at which the activity in the assay is half-maximal. By IC50 is commonly meant the concentration needed to halve the response being measured.

23 compounds from patent US20250092065A1, “2-(INDAZOL-5-YL)-6-(PIPERIDIN-4-YL)-1,7-NAPHTHYRIDINE DERIVATIVES AND RELATED COMPOUNDS AS MODULATORS FOR SPLICING NUCLEIC ACIDS AND FOR THE TREATMENT OF PROLIFERATIVE DISEASES” (REMIX THERAPEUTICS INC., priority 2022, published 2025) can be followed below.

SMILES strings stand for the structures. Structures can show the parent of a compound that is named as a salt. Where two headings read alike, the source gives them in different places. A value given as a limit tells only on which side of the number the result lay.

The test system of the experiment is MYB mRNA. Put plainly: RT-qPCR splicing assay, MYB mRNA canonical (CJ) and alternative (AJ) junction. The experiment is classed as cell-based, human. The following applies: Homo sapiens; for AC50: MYB alternative junction mRNA, read-out: MYB AJ (increase in AJ mRNA, AC50). An outline of the steps:
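Junction-specific RT-qPCR read-out: CJ and AJ isoform levels, housekeeper-normalized (GAPDH/GUSB/PPIA), ΔΔCt vs DMSO, converted to RQ then % response. Cells: A673 (DMEM/10% FBS, adhered 24 h) or K562 (IMDM/10% FBS). Compound 11-pt 3-fold, top 10 uM, 24 h, 37 °C.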
A general note: Quantitative PCR measures a nucleic acid by following its amplification.

Setting [1] is: MYB canonical junction mRNA, RT-qPCR, read-out: MYB CJ (decrease in CJ mRNA levels, IC50).
[2] abbreviates: canonical junction qPCR panel, Table 4, read-out: MYB IC50 (decrease in CJ mRNA levels).

In the case of `Cc1nc2c(C)c(O)c(-c3ccc4nc(N5CC[C@H](NC(C)C)C5)ncc4n3)cc2o1` [Compound 416, 6-{2-[(3S)-3-(isopropylamino)pyrrolidin-1-yl]pyrido[3,2-d]pyrimidin-6-yl}-2,4-dimethyl-1,3-benzoxazol-5-ol], for the setting “RT-qPCR”, the AC50 was under 100 nM. The IC50 is, setting by setting: under setting [1], under 100 nM; under setting [2], under 100 nM.

Consider `Cc1nc2cc(O)c(-c3ccc4cc(N5CC[C@@H](NC(C)(C)C)C5)ncc4n3)cc2o1` [Compound 417], for which the AC50 (RT-qPCR) was 100 to 1000 nM. Besides, the IC50 fell in the range of 100 to 1000 nM under setting [1] and 100 to 1000 nM under setting [2].

Take `Cc1nc2cc(O)c(-c3ccc4nc(N5CCN[C@@H](C6CC6)C5)ccc4n3)cc2o1` [Compound 418]: the AC50 (RT-qPCR) lay within 100 to 1000 nM. Further, the IC50 is 100 to 1000 nM under setting [1] and 100 to 1000 nM under setting [2].

For `Cc1nc2cc(O)c(-c3ccc4nc(N5C[C@@H](C)N[C@@H](C6CC6)C5)ccc4n3)cc2o1` [Compound 419], the AC50 (RT-qPCR) lay in the range of 100 to 1000 nM. For the same compound, the IC50 runs as follows: under setting [1], 100 to 1000 nM; under setting [2], 100 to 1000 nM.

For `Cc1nc2cc(O)c(-c3ccc4nc(N5C[C@@H](C)N[C@@H](C)C5)ccc4n3)cc2o1` [Compound 420], under “RT-qPCR”, the AC50 was 100 to 1000 nM. The IC50 runs as follows: under setting [1], 100 to 1000 nM; under setting [2], 100 to 1000 nM.

On to `Cc1nc2cc(O)c(-c3ccc4nc(N5CCN[C@H](C6CC6)C5)ccc4n3)cc2o1` [Compound 421], for which the AC50 (RT-qPCR) lay in the range of 100 to 1000 nM. The IC50 by setting is: under setting [1], 100 to 1000 nM; under setting [2], 100 to 1000 nM.

Take `Cc1nc2cc(O)c(-c3ccc4nc(N5CCN[C@@H](C(C)C)C5)ccc4n3)cc2o1` [Compound 422]: the AC50 (RT-qPCR) was in the range of 100 to 1000 nM. Moreover, the IC50 is, setting by setting: under setting [1], 100 to 1000 nM; under setting [2], 100 to 1000 nM.

Consider `Cc1nc2cc(O)c(-c3ccc4nc(N5CCC(N)CC5)ccc4n3)cc2o1` [Compound 424], for which the AC50 (RT-qPCR) lay within 1000 to 10000 nM. For the same compound, the IC50 lay within 1000 to 10000 nM under setting [1] and 1000 to 10000 nM under setting [2].

As to `CNC1CCN(c2ccc3nc(-c4cc5oc(C)nc5cc4O)ccc3n2)CC1` [Compound 425], for the setting “RT-qPCR”, the AC50 is 1000 to 10000 nM. Also, the IC50 lay within 1000 to 10000 nM under setting [1] and 1000 to 10000 nM under setting [2].

With `Cc1nc2c(C)c(O)c(-c3ccc4nc(N5CC[C@H](NC6CC6)C5)ncc4n3)cc2o1` [Compound 433, 6-{2-[(3S)-3-(cyclopropylamino)pyrrolidin-1-yl]pyrido[3,2-d]pyrimidin-6-yl}-2,4-dimethyl-1,3-benzoxazol-5-ol], the AC50 (RT-qPCR) was 100 to 1000 nM. The IC50 under setting [1] was 100 to 1000 nM and the IC50 under setting [2] lay in the range of 100 to 1000 nM.

As for `Cc1nc2cc(O)c(-c3ccc4nc(N5CC[C@H](NC6CC6)C5)ncc4n3)cc2o1` [Compound 435, 6-{2-[(3S)-3-(cyclopropylamino)pyrrolidin-1-yl]pyrido[3,2-d]pyrimidin-6-yl}-2-methyl-1,3-benzoxazol-5-ol], where the note is “RT-qPCR”, the AC50 was in the range of 100 to 1000 nM. In addition, the IC50 under setting [1] fell in the range of 100 to 1000 nM and the IC50 under setting [2] was in the range of 100 to 1000 nM.

Turning to `Cc1nc2c(C)c(O)c(-c3ccc4nc(N5CC[C@@H](NC(C)(C)C)C5)ncc4n3)cc2o1` [Compound 436], the half-maximal activity concentration (AC50) (RT-qPCR) is under 100 nM. The 50% inhibitory concentration (IC50) runs as follows: under setting [1], under 100 nM; under setting [2], under 100 nM.

As to `Cc1nc2c(C)c(O)c(-c3ccc4nc(N5CC[C@H](NC(C)(C)C)C5)ncc4n3)cc2o1` [Compound 437], the AC50 (RT-qPCR) was in the range of 100 to 1000 nM. Moreover, the IC50 reads like this: under setting [1], 100 to 1000 nM; under setting [2], 100 to 1000 nM.

With `Cc1c(O)c(-c2ccc3nc(N4CC[C@@H](NC5CC5)C4)ncc3n2)cc2cn(C)nc12` [Compound 438, 5-{2-[(3R)-3-(cyclopropylamino)pyrrolidin-1-yl]pyrido[3,2-d]pyrimidin-6-yl}-2,7-dimethylindazol-6-ol], the AC50 (RT-qPCR) is under 100 nM. Further, the IC50 is, setting by setting: under setting [1], 100 to 1000 nM; under setting [2], 100 to 1000 nM.

Turning to `Cc1c(O)c(-c2ccc3nc(N4CC[C@H](NC5CC5)C4)ncc3n2)cc2cn(C)nc12` [Compound 439, 5-{2-[(3S)-3-(cyclopropylamino)pyrrolidin-1-yl]pyrido[3,2-d]pyrimidin-6-yl}-2,7-dimethylindazol-6-ol], the AC50 (RT-qPCR) was 100 to 1000 nM. Moreover, the IC50 is, setting by setting: under setting [1], 100 to 1000 nM; under setting [2], 100 to 1000 nM.

As to `Cc1nc2c(C)c(O)c(-c3ccc4cc(N5CC[C@@H](NC6CC6)C5)ncc4n3)cc2o1` [Compound 440, 6-{6-[(3R)-3-(cyclopropylamino)pyrrolidin-1-yl]-1,7-naphthyridin-2-yl}-2,4-dimethyl-1,3-benzoxazol-5-ol], the AC50 (RT-qPCR) lay within 100 to 1000 nM. Moreover, the half-maximal inhibitory concentration (IC50) under setting [1] fell in the range of 100 to 1000 nM and the 50% inhibitory concentration (IC50) under setting [2] lay within 100 to 1000 nM.

For the compound `Cc1nc2c(C)c(O)c(-c3ccc4cc(N5CC[C@H](NC6CC6)C5)ncc4n3)cc2o1` [Compound 441, 6-{6-[(3S)-3-(cyclopropylamino)pyrrolidin-1-yl]-1,7-naphthyridin-2-yl}-2,4-dimethyl-1,3-benzoxazol-5-ol], for the setting “RT-qPCR”, the AC50 fell in the range of 100 to 1000 nM. Further, the IC50 by setting is: under setting [1], 100 to 1000 nM; under setting [2], 100 to 1000 nM.

For `Cn1cc2cc(-c3ccc4nc(C5CCNC6(CC6)C5)ncc4n3)c(O)cc2n1` (stereo not drawn) [Compound 448, 5-(2-{4-azaspiro[2.5]octan-7-yl}pyrido[3,2-d]pyrimidin-6-yl)-2-methylindazol-6-ol], the AC50 (RT-qPCR) is 1000 to 10000 nM. The IC50 is, setting by setting: under setting [1], 100 to 1000 nM; under setting [2], 100 to 1000 nM.

As for `Cn1cc2cc(-c3ccc4cc(N5CCC(NC(C)(C)C)C5)ncc4n3)c(O)cc2n1` (stereo not drawn) [Compound 449, 5-{6-[3-(tert-butylamino)pyrrolidin-1-yl]-1,7-naphthyridin-2-yl}-2-methylindazol-6-ol], under “RT-qPCR”, the AC50 was 100 to 1000 nM. Besides, the IC50 lay within 100 to 1000 nM under setting [1] and 100 to 1000 nM under setting [2].

With `Cc1nc2cc(O)c(-c3ccc4cc(N5CC[C@H](NC(C)(C)C)C5)ncc4n3)cc2o1` [Compound 450], the AC50 (RT-qPCR) lay in the range of 1000 to 10000 nM. Moreover, the half-inhibitory concentration (IC50) reads like this: under setting [1], 1000 to 10000 nM; under setting [2], 1000 to 10000 nM.

With `Cc1c(O)c(-c2cc(Cl)c3cc(N4CCNCC4)cc(C)c3n2)cc2cn(C)nc12` [Compound 482, 5-[4-chloro-8-methyl-6-(piperazin-1-yl)577yrrolidi-2-yl]-2,7-dimethylindazol-6-ol hydrochloride], for the setting “RT-qPCR”, the AC50 was under 100 nM. For the same compound, the IC50 by setting is: under setting [1], under 100 nM; under setting [2], under 100 nM.

`Cc1cc2nc(-c3cc4cn(C)nc4c(C)c3O)cc(Cl)c2cc1N1CCNCC1` [Compound 484, 5-[4-chloro-7-methyl-6-(piperazin-1-yl)586yrrolidi-2-yl]-2,7-dimethylindazol-6-ol]: the AC50 (RT-qPCR) lay within 100 to 1000 nM. Moreover, the half-maximal inhibitory concentration (IC50) reads like this: under setting [1], 100 to 1000 nM; under setting [2], 100 to 1000 nM.

For the compound `CNC1CCN(c2cc3c(Cl)cc(-c4cc5cn(C)nc5c(C)c4O)nc3cc2C)C1` (stereo not drawn) [Compound 486, 5-{4-chloro-7-methyl-6-[3-(methylamino)pyrrolidin-1-yl]quinolin-2-yl}-2,7-dimethylindazol-6-ol], the AC50 (RT-qPCR) lay within 100 to 1000 nM. Further, the IC50 under setting [1] fell in the range of 100 to 1000 nM and the IC50 under setting [2] fell in the range of 100 to 1000 nM.
